The subject of assay [1] is T47D cells. Put plainly: Cell-based assay: anti-proliferative activity, Cell Counting Kit-8, 72 hours (T47D). As to conditions: Homo sapiens, T47D, 72 h, MELK-expressing, Cell Counting Kit-8 at 72 hours. A digest of the protocol:
(§1)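 T47D, A549 and BT-549 cells, with MELK-negative HT-1197 as control (MELK status checked by western blot), seeded at 2,000–3,000 cells/well. Growth measured by CCK-8 72 hours after inhibitor exposure; IC50 values calculated.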
On the technique in general: Tetrazolium assays rely on reduction of a dye to a coloured formazan, in cell work by metabolically active cells.

The subject of assay [2] is HT-1197 cells. Put plainly: Cell-based assay: anti-proliferative activity, Cell Counting Kit-8, 72 hours (HT-1197, negative control without MELK expression). The note with it: Homo sapiens, HT1197, 72 h, HT1197 cells, no MELK expression (negative control); Cell Counting Kit-8 at 72 hours. In outline: as §1
For assay [3], the target named is MELK (Homo sapiens, UniProt Q14680). Put plainly: Kinase assay: MELK activity, phosphorylation of FITC-labeled histone H3 peptide measured by IMAP fluorescence polarization. The format is biochemical. As to conditions: 50 micro-M ATP, FITC-labeled histone H3 peptide substrate, IMAP fluorescence polarization; read-out: IC50 (μM) (kinase assay). A digest of the protocol:
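A FITC-labelled histone H3 peptide served as substrate, with compounds serially diluted to 1% DMSO final. Reactions were stopped with three volumes of IMAP progressive binding solution. After 0.5 h at room temperature, fluorescence polarization was read.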
In general terms: Fluorescence polarisation rises when a labelled molecule tumbles more slowly, as on binding a larger partner.

For assay [4], the system named is BT-549 cells. Put plainly: Cell-based assay: anti-proliferative activity, Cell Counting Kit-8, 72 hours (BT-549). The note with it: Homo sapiens, BT-549, 72 h, BT549 cells, MELK-expressing; Cell Counting Kit-8 at 72 hours. How it is done:
To evaluate the expression status of MELK in several cell lines, western blot analysis was performed using crude cell lysate collected from those cells. Anti-MELK antibody (clone 31, BD Biosciences) was used to visualize the expression.
Active candidate inhibitors against MELK were evaluated for their target-specific cytotoxicity using T47D, A549, BT-549, and HT-1197 cells was used for negative control. 100 micro-L of cell suspension was seeded onto 96-well microtiter plate (ViewPlate-96FTC, PerkinElmer). The initial cell concentration of T47D, A549, BT-549, and HT-1197 were 3,000 cells/well, 2,000 cells/well and 2,500 cells/well, respectively. Cellular growth was determined using Cell Counting Kit-8 (DOJINDO) at 72 hours after the exposure of the candidate inhibitors. […] Accurate IC50 values were calculated as described previously.

Assay [5] relates to A549 cells. Put plainly: Cell-based assay: anti-proliferative activity, Cell Counting Kit-8, 72 hours (A549). The note with it: MELK-expressing, Cell Counting Kit-8 at 72 hours. In outline:
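Cell Counting Kit-8 read-out of A549 growth after 72 hours of inhibitor exposure, cells plated in 96-well format. Values reported as IC50.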

Counter-ions that a name gives are not always drawn.

Sequence of MELK (Q14680 whole entry, looked up): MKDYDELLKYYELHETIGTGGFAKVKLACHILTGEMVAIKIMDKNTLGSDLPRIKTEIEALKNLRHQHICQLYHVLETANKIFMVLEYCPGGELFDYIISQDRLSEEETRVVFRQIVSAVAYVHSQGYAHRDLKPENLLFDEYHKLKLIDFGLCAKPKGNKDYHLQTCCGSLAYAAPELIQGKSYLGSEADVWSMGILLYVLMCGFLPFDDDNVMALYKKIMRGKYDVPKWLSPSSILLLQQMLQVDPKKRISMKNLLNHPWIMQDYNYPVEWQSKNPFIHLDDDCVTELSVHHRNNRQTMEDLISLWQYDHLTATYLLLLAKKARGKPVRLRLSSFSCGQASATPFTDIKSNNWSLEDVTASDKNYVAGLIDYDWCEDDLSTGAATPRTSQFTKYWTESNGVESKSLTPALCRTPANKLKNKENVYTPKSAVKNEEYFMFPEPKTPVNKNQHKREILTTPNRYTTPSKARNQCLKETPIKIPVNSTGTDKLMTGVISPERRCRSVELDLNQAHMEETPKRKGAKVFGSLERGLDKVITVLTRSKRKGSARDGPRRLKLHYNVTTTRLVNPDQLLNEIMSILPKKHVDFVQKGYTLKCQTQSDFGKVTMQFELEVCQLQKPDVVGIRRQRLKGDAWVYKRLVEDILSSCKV

What is called IC50 is the concentration at which inhibition is half-maximal. In the case of `CC(C)C(=O)c1cnc2ccc(-c3cc(F)c(O)c(Cl)c3)cc2c1N1CCC(CN2CCCC2)CC1` [Example 323, 1-{6-(3-Chloro-5-fluoro-4-hydroxyphenyl)-4-[4-(pyrrolidin-1-ylmethyl)piperidin-1-yl]quinolin-3-yl}-2-methylpropan-1-one], the IC50 is 0.63 µM in assay [1]; 1.2 µM in assay [2]; 0.013 µM in assay [3]; 1.5 µM in assay [4]; 0.87 µM in assay [5] (Homo sapiens, A549, 72 h).

`COc1cc(-c2ccc3ncc(C(=O)C4CC4)c(NCC4CCNCC4)c3c2)cc(Cl)c1O` [Example 243]: the IC50 in assay [1] amounted to 0.33 µM; in assay [2], 7.3 µM; in assay [3], 0.0044 µM; in assay [4] it was 1.8 µM; in assay [5] (Homo sapiens, A549, 72 h) it was 0.62 µM.

As for `CCN(CC)C1CCC(Nc2c(S(C)(=O)=O)cnc3ccc(-c4cc(Cl)c(O)c(OC)c4)cc23)CC1` (stereo not drawn) [Example 240, 2-Chloro-4-{4-[4-(diethylamino)cyclohexylamino]-3-(methylsulfonyl)quinolin-6-yl}-6-methoxyphenol dihydrochloride], the IC50 in assay [1] was 0.97 µM; in assay [2] it was 3.8 µM; in assay [3] it was 0.0053 µM; in assay [4] it was 1.5 µM; in assay [5] (Homo sapiens, A549, 72 h) it was 0.78 µM.

As to `CC(C)C(=O)c1cnc2ccc(-c3cc(F)c(O)c(Cl)c3)cc2c1N[C@H]1CC[C@H](N)CC1` [Example 205, 1-{4-[trans-4-Aminocyclohexylamino]-6-(3-chloro-5-fluoro-4-hydroxyphenyl)quinolin-3-yl}-2-methylpropan-1-one], the IC50 turned out to be 0.066 µM in assay [1]; 2.4 µM in assay [2]; 0.01 µM in assay [3]; 0.15 µM in assay [4]; 0.6 µM in assay [5] (Homo sapiens, A549, 72 h).

With `CN1CCC(CNc2c(C(=O)C3CC3)cnc3ccc(-c4cc(F)c(O)c(Cl)c4)cc23)CC1` [Example 270, {6-(3-Chloro-5-fluoro-4-hydroxyphenyl)-4-[(1-methylpiperidin-4-yl)methylamino]quinolin-3-yl}(cyclopropyl)methanone], the IC50 in assay [1] was found to be 0.51 µM; in assay [2], 2.9 µM; in assay [3], 0.021 µM; in assay [4] it was 1.1 µM; in assay [5] (Homo sapiens, A549, 72 h) it was 0.69 µM.

On to `N[C@H]1CC[C@@H](Nc2c(C(=O)C3CC3)cnc3ccc(-c4cc(F)c(O)c(F)c4)cc23)CC1` [Example 180, [4-(cis-4-Aminocyclohexylamino)-6-(3,5-difluoro-4-hydroxyphenyl)quinolin-3-yl](cyclopropyl)methanone], for which the IC50 in assay [1] stood at 0.17 µM; in assay [2], 4.5 µM; in assay [3], 0.0026 µM; in assay [4], 0.3 µM; in assay [5] (Homo sapiens, A549, 72 h) it was 0.9 µM.

In the case of `COc1cc(-c2ccc3ncc(C(C)=O)c(N4CCC(CN5CCCC5)CC4)c3c2)cc(Cl)c1O` [Example 321, 1-{6-(3-Chloro-4-hydroxy-5-methoxyphenyl)-4-[4-(pyrrolidin-1-ylmethyl)piperidin-1-yl]quinolin-3-yl}ethanone], the 50% inhibitory concentration (IC50) in assay [1] was 0.19 µM; in assay [2], 5.1 µM; in assay [3], 0.0027 µM; in assay [4], 0.29 µM; in assay [5] (Homo sapiens, A549, 72 h) it was 0.18 µM.

Take `N[C@H]1CC[C@H](Nc2c(C(=O)C3CC3)cnc3ccc(-c4ccc5[nH]cnc5c4)cc23)CC1` [Example 116, {4-[trans-4-Aminocyclohexylamino]-6-(1H-benzo[d]imidazol-5-yl)quinolin-3-yl}(cyclopropyl)methanone]: the IC50 in assay [1] is 1.8 µM; in assay [2], 15 µM; in assay [3], 0.018 µM; in assay [4], 5.7 µM; in assay [5] (Homo sapiens, A549, 72 h), 13 µM.

Take `CN(C)[C@H]1CC[C@H](Nc2c(C(=O)C3CC3)cnc3cc(F)c(-c4cc(F)c(O)c(Cl)c4)cc23)CC1` [Example 295, {6-(3-Chloro-5-fluoro-4-hydroxyphenyl)-4-[trans-4-(dimethylamino)cyclohexylamino]-7-fluoroquinolin-3-yl}(cyclopropyl)methanone]: the IC50 in assay [1] was 0.42 µM; in assay [2] it was 1.2 µM; in assay [3] it was 0.027 µM; in assay [4] it was 0.39 µM; in assay [5] (Homo sapiens, A549, 72 h), 0.31 µM.

As for `CC(C)C(=O)c1cnc2ccc(-c3ccc(C#N)nc3)cc2c1N[C@H]1CC[C@H](N)CC1` [Example 108, 5-{4-[trans-4-Aminocyclohexylamino]-3-isobutyrylquinolin-6-yl}picolinonitrile], the IC50 is 6.1 µM in assay [1]; 15 µM in assay [2]; 0.03 µM in assay [3]; 14 µM in assay [4]; 13 µM in assay [5] (Homo sapiens, A549, 72 h).

Take `O=C(c1cnc2ccc(-c3ccc(O)c(Cl)c3)cc2c1N[C@H]1CC[C@H](N2CCCC2)CC1)C1CC1` [Example 342, {6-(3-Chloro-4-hydroxyphenyl)-4-[trans-4-(pyrrolidin-1-yl)cyclohexylamino]quinolin-3-yl}(cyclopropyl)methanone]: the IC50 in assay [1] was found to be 0.25 µM; in assay [2] it was 1.8 µM; in assay [3] it was 0.0046 µM; in assay [4], 0.68 µM; in assay [5] (Homo sapiens, A549, 72 h), 0.27 µM.

As to `COc1cc(-c2ccc3ncc(C(=O)C4CC4)c(N[C@H]4CC[C@H](N(C)C)CC4)c3c2)cc(Cl)c1O` [Example 255, {6-(3-Chloro-4-hydroxy-5-methoxyphenyl)-4-[trans-4-(dimethylamino)cyclohexylamino]quinolin-3-yl}(cyclopropyl)methanone], the IC50 is 0.28 µM in assay [1]; 1.9 µM in assay [2]; 0.0019 µM in assay [3]; 0.64 µM in assay [4]; 0.18 µM in assay [5] (Homo sapiens, A549, 72 h).

For `COc1cc(-c2ccc3ncc(C(=O)C4CC4)c(N[C@H]4CC[C@H](N(C)C)CC4)c3c2)ccc1O` [Example 266, Cyclopropyl(4-((trans)-4-(dimethylamino)cyclohexylamino)-6-(4-hydroxy-3-methoxyphenyl)quinolin-3-yl)methanone], the IC50 in assay [1] came to 0.29 µM; in assay [2], 3 µM; in assay [3], 0.0016 µM; in assay [4], 0.94 µM; in assay [5] (Homo sapiens, A549, 72 h), 0.37 µM.

Regarding `COc1cc(-c2ccc3ncc(C(=O)C4CC4)c(N[C@H]4CC[C@H](CN(C)C)CC4)c3c2)cc(Cl)c1O` [Example 316], the half-inhibitory concentration (IC50) in assay [1] worked out at 0.5 µM; in assay [2], 6.3 µM; in assay [3] it was 0.011 µM; in assay [4] it was 1.3 µM; in assay [5] (Homo sapiens, A549, 72 h), 0.32 µM.

Consider `CC(C1CCN(c2c(S(C)(=O)=O)cnc3ccc(-c4ccc(O)c(Cl)c4)cc23)CC1)N(C)C` (stereo not drawn) [Example 246, 2-Chloro-4-[4-{4-[1-(dimethylamino)ethyl]piperidin-1-yl}-3-(methylsulfonyl)quinolin-6-yl]phenol], for which the IC50 in assay [1] worked out at 0.18 µM; in assay [2], 1.2 µM; in assay [3], 0.01 µM; in assay [4], 0.72 µM; in assay [5] (Homo sapiens, A549, 72 h) it was 0.35 µM.

As to `COc1cc(-c2ccc3ncc(C(=O)C4CC4)c(N4CCC(CN5CCOCC5)CC4)c3c2)cc(Cl)c1O` [Example 334, {6-(3-Chloro-4-hydroxy-5-methoxyphenyl)-4-[4-(morpholinomethyl)piperidin-1-yl]quinolin-3-yl}(cyclopropyl)methanone], the IC50 in assay [1] worked out at 0.55 µM; in assay [2] it was 4.8 µM; in assay [3], 0.0081 µM; in assay [4], 0.77 µM; in assay [5] (Homo sapiens, A549, 72 h) it was 0.41 µM.

`CCN(CC)C1CCC(Nc2c(C(=O)C3CC3)cnc3ccc(-c4cc(Cl)c(O)c(OC)c4)cc23)CC1` (stereo not drawn) [Example 185(a), {6-(3-Chloro-4-hydroxy-5-methoxyphenyl)-4-[4-(diethylamino)cyclohexylamino]quinolin-3-yl}(cyclopropyl)methanone]: the IC50 amounted to 0.59 µM in assay [1]; 6.9 µM in assay [2]; 0.0026 µM in assay [3]; 2 µM in assay [4]; 0.42 µM in assay [5].

Consider `N[C@H]1CC[C@H](Nc2c(C(=O)C3CC3)cnc3ccc(-c4cc(F)c(O)c(F)c4)cc23)CC1` [Example 156, {4-[trans-4-Aminocyclohexylamino]-6-(3,5-difluoro-4-hydroxyphenyl)quinolin-3-yl}(cyclopropyl)methanone], for which the IC50 in assay [1] is 0.095 µM; in assay [2], 3.1 µM; in assay [3] it was 0.023 µM; in assay [4] it was 0.16 µM; in assay [5] (Homo sapiens, A549, 72 h), 0.88 µM.

For the origin of these results see patent publication US9120749B2, “Quinoline derivatives and MELK inhibitors containing the same” (ONCOTHERAPY SCIENCE, INC., priority 2010, dated 2015).
